Here are results for two compounds from patent publication US7666857B2, “2-(3,4-dimethylphenyl)-4-{[2-hydroxy-3′-(1h-tetrazol-5-yl)biphenyl-3-yl]-hydrazono}-5-methyl-2,4-dihydropyrazol-3-one choline” (SmithKline Beecham Corp., priority 2004, dated 2010).

The conditions of data set [1]: in vivo; choline salt compared with the free acid.
The next data set can be described thus: solubility in water. It counts as physicochemical.

Take `CC1=NN(c2ccc(C)c(C)c2)C(=O)/C1=N\Nc1cccc(-c2cccc(-c3nnn[nH]3)c2)c1O` [Compound A, 2-(3,4-dimethylphenyl)-4-{[2-hydroxy-3′-(1H-tetrazol-5-yl)biphenyl-3-yl]-hydrazono}-5-methyl-2,4-dihydropyrazol-3-one choline]: in data set [1], the bioavailability result was “enhanced” and the oral exposure entry is “enhanced”.

On to `CC1=NN(c2ccc(C)c(C)c2)C(=O)C1=NNc1cccc(-c2cccc(-c3nnn[nH]3)c2)c1O` [free acid, 2-(3,4-dimethylphenyl)-4-{[2-hydroxy-3′-(1H-tetrazol-5-yl)biphenyl-3-yl]-hydrazono}-5-methyl-2,4-dihydropyrazol-3-one], for which the solubility in water entry in the data set “solubility in water” is on record as “poorly soluble”.
